Experimental findings from US20220340916A1, “METHODS FOR TRANSFORMING WHEAT EXPLANTS AND COMPOSITIONS THEREFOR” (MONSANTO TECHNOLOGY LLC, priority 2013, published 2022) are described below.

SMILES strings stand for the structures.

Consider `CCO` [ethanol], for which, in the data set with WDSDEs, the “viability of WDSDEs produced from treated seed” value is “acceptable”. For the same molecule, in the data set with WDSDEs (seed sanitization, 10% Clorox bleach, ethanol used cold (~0° C.)), the “cleanliness of WDSDEs excised from treated seed” value is reported as “less efficient”. Besides, the “effect of ethanol exposure on intact seed germination on media” value with wheat seed (70% ethanol, FIG. 2) is on record as “time-dependent effect”. Also, the “germination of intact seeds as measured by root and shoot development on media” value with wheat seed (sanitization treatments involving ethanol, FIG. 1) is “reduced germination”.
As to `O=C(NO)c1ccccc1O` [SHAM, salicylhydroxamic acid], in the data set with wheat WDSDEs, the “effect of soaking WDSDEs on oxygen consumption” value is recorded as “No effect” and the “effect on oxygen consumption when added to the reaction chamber during an oxygen measurement” value is recorded as “Very little effect”.
